Legend:
Assay type in all cases: cell-based
Actinomyces oris = experiment: Bacterial growth of Actinomyces oris in the presence of polyols; conditions: aerobic conditions, FIG. 6
Experimental: (§1) The growth of these strains was then measured in the presence of isosorbide, maltitol, xylitol, allulose, sorbitol powder and dextrose monohydrate in an unrefreshed culture medium, incubated at 37° C. for 48 hours or 72 hours under aerobic or anaerobic conditions. The growths were measured by bacterial counting on solid medium. The results are expressed in Log 10 (CFU/ml). The culture media used are the Bacto Brain Heart Infusion (ref. 237500-BD (BHI)) and Difco™ Brain Heart Infusion Agar (ref. 241830-BD (BHIa)) culture media.

Streptococcus mutans [1] = experiment: Bacterial growth of Streptococcus mutans strain from a healthy tooth, in the presence of polyols, counting on solid medium; conditions: aerobic conditions, FIG. 1
Experimental: as §1

Actinomyces naeslundii = experiment: Bacterial growth of Actinomyces naeslundii in the presence of polyols; conditions: for bacterial population: FIG. 4 as printed
Experimental: as §1

Lactobacillus gasseri = experiment: Bacterial growth of Lactobacillus gasseri in the presence of polyols; conditions: anaerobic conditions, FIG. 3
Experimental: as §1

oral bacterial strains = experiment: Growth of the oral bacterial strains overall (summary of all strains tested)
Experimental: as §1

Streptococcus mutans [2] = experiment: Bacterial growth and biofilm of Streptococcus mutans strain from a decayed tooth, in the presence of polyols; conditions: FIG. 2
Experimental: as §1, with “incubated at 37° C. for 48 hours or 72 hours under aerobic or anaerobic” left out

| Structure (SMILES) | bacterial growth (Actinomyces oris) | bacterial population after 24 hours (Streptococcus mutans [1]) | kind of effect on the bacterial population (Streptococcus mutans [1]) | bacterial growth (Streptococcus mutans [1]; T=24 hours) | bacterial growth (Actinomyces naeslundii; aerobic conditions, FIG. 5) | bacterial population from T=40 hours (Actinomyces naeslundii; aerobic conditions, from T=40 hours, FIG. 5) | kind of effect on the bacterial population (Actinomyces naeslundii; anaerobic conditions) | bacterial population (Actinomyces naeslundii; anaerobic conditions) | bacterial growth (Lactobacillus gasseri; T=24 hours) | kind of effect, populations beyond 24 hours (Lactobacillus gasseri; beyond 24 hours) | growth of the bacterial strains, all cases (oral bacterial strains; all strains and conditions tested) | level of performance relative to xylitol or sorbitol (oral bacterial strains; comparison with polyols of commercial toothpastes) | bacterial growth (Streptococcus mutans [2]; anaerobic conditions) | biofilm formed (Streptococcus mutans [2]; anaerobic conditions, after 96 hours of incubation) | bacterial growth (Streptococcus mutans [2]; strain from a decayed tooth) |
| --- | --- | --- | --- | --- | --- | --- | --- | --- | --- | --- | --- | --- | --- | --- | --- |
| O=C(CO)C(O)C(O)C(O)CO (stereo not shown) [allulose] | slowed relative to the other polyols tested | – | – | – | – | – | – | – | – | – | – | – | – | – | – |
| O[C@@H]1CO[C@H]2[C@@H]1OC[C@@H]2O [isosorbide, 1,4:3,6-dianhydrosorbitol] | decreases greatly over time in the presence of isosorbide, then stabilizes after 24 hours | declines slightly | bacteriostatic effect | remain absent | remains low relative to the other polyols | substantial decrease | bactericidal effect | falls constantly until it disappears completely | remains absent | inhibitory effect | very significant decrease | even higher than that observed with xylitol or sorbitol | varies little | biofilm formed in the absence of isosorbide is much more pronounced than in the presence of isosorbide | Very slowed growth |
| OC[C@@H](O)[C@H](O)[C@@H](O)CO [xylitol, reference compound] | slowed relative to the other polyols tested | – | – | – | appears to further curb the bacterial growth than the other polyols tested | – | – | remains stable | – | – | – | – | – | – | – |
